pIC50: −log10 of the molar value.
Biological target: T1, full length active recombinant SYK enzyme (Homo sapiens, UniProt P43405)
T1 construct: full length active recombinant SYK enzyme (Millipore, Calif.); purchased Millipore
Assay: Inhibition of Syk tyrosine phosphorylation activity (LANCE TR-FRET kinase assay)
Assay type: biochemical
Details: 1 nM SYK, 550 nM substrate, 100 μM ATP, 1 hour room temperature

Compound	pIC50
Cn1ncc2c(Nc3nc(N[C@H](C4CC4)C4(N)CC4)ncc3C(N)=O)cccc21 [Example 162, (R)-2-(1-(1-aminocyclopropyl)(cyclopropyl)methylamino)-4-(1-methyl-1H-indazol-4-ylamino)pyrimidine-5-carboxamide]	8.00 to 9.00
NC(=O)c1cnc(N[C@H](C2CC2)C2(N)CC2)nc1Nc1cccc(-n2cncn2)c1 [Example 163, (R)-4-(3-(1H-1,2,4-triazol-1-yl)phenylamino)-2-(1-(1-aminocyclopropyl)(cyclopropyl)methylamino)pyrimidine-5-carboxamide]	8.00 to 9.00
NC(=O)c1cnc(N[C@H](C2CC2)C2(N)CC2)nc1Nc1ccc2scnc2c1 [Example 166, (R)-2-(1-(1-aminocyclopropyl)(cyclopropyl)methylamino)-4-(benzo[d]thiazol-5-ylamino)pyrimidine-5-carboxamide]	7.00 to 8.00
NC(=O)c1cnc(N[C@H](C2CC2)C2(N)CC2)nc1Nc1ccc2ncsc2c1 [Example 167, (R)-2-(1-(1-aminocyclopropyl)(cyclopropyl)methylamino)-4-(benzo[d]thiazol-6-ylamino)pyrimidine-5-carboxamide]	8.00 to 9.00
NC(=O)c1cnc(N[C@@H]2CCCC(F)(F)[C@@H]2N)nc1Nc1cnc2ccccc2c1 [Example 168, 2-((1R,2R)-2-amino-3,3-difluorocyclohexylamino)-4-(quinolin-3-ylamino)pyrimidine-5-carboxamide]	6.00 to 7.00
NC(=O)c1cnc(N[C@@H]2CCCC(F)(F)[C@@H]2N)nc1Nc1ccc2ncccc2c1 [Example 169, 2-((1R,2R)-2-amino-3,3-difluorocyclohexylamino)-4-(quinolin-6-ylamino)pyrimidine-5-carboxamide]	7.00 to 8.00
NC(=O)c1cnc(N[C@H](C2CC2)C2(N)CC2)nc1Nc1ccc(F)cc1 [Example 170, (R)-2-(1-(1-aminocyclopropyl)(cyclopropyl)methylamino)-4-(4-fluorophenylamino)pyrimidine-5-carboxamide]	6.00 to 7.00
NC(=O)c1cnc(N[C@H](C2CC2)C2(N)CC2)nc1Nc1csc2ncccc12 [Example 171, (R)-2-(1-(1-aminocyclopropyl)(cyclopropyl)methylamino)-4-(thieno[2,3-b]pyridine-3-ylamino)pyrimidine-5-carboxamide]	8.00 to 9.00
NC(=O)c1cnc(N[C@@H]2CCOC[C@@H]2N)nc1Nc1cnc2ccccc2c1 [Example 177, 2-((3R,4R)-3-aminotetrahydro-2H-pyran-4-ylamino)-4-(quinolin-3-ylamino)pyrimidine-5-carboxamide]	7.00 to 8.00
NC(=O)c1cnc(N[C@@H]2CCOC[C@@H]2N)nc1Nc1ccc2scnc2c1 [Example 178, 2-((3R,4R)-3-aminotetrahydro-2H-pyran-4-ylamino)-4-(benzo[d]thiazol-5-ylamino)pyrimidine-5-carboxamide]	7.00 to 8.00
NC(=O)c1cnc(N[C@@H]2CCOC[C@@H]2N)nc1Nc1csc2ncccc12 [Example 179, 2-((3R,4R)-3-aminotetrahydro-2H-pyran-4-ylamino)-4-(thieno[2,3-b]pyridin-3-ylamino)pyrimidine-5-carboxamide]	7.00 to 8.00
NC(=O)c1cnc(N[C@@H]2CCOC[C@@H]2N)nc1Nc1ccc2ncccc2c1 [Example 180, 2-((3R,4R)-3-aminotetrahydro-2H-pyran-4-ylamino)-4-(quinolin-6-ylamino)pyrimidine-5-carboxamide]	8.00 to 9.00
NC(=O)c1cnc(N[C@@H]2CCOC[C@@H]2N)nc1Nc1ccc2ncsc2c1 [Example 181, 2-((3R,4R)-3-aminotetrahydro-2H-pyran-4-ylamino)-4-(benzo[d]thiazol-6-ylamino)pyrimidine-5-carboxamide]	7.00 to 8.00
NC(=O)c1cnc(Nc2ccccc2)nc1NC1CCC(N)CC1 (stereo not drawn) [Example 183, 4-(4-aminocyclohexylamino)-2-(phenylamino)pyrimidine-5-carboxamide]	7.00 to 8.00
Cc1ccc(Nc2ncc(C(N)=O)c(N[C@H]3CC[C@@H](N)CC3)n2)cc1 [Example 184, 4-(4-aminocyclohexylamino)-2-(p-tolylamino)pyrimidine-5-carboxamide]	7.00 to 8.00
COc1ccc(Nc2ncc(C(N)=O)c(N[C@H]3CC[C@@H](N)CC3)n2)cc1 [Example 185, 4-(4-aminocyclohexylamino)-2-(4-methoxyphenylamino)pyrimidine-5-carboxamide]	7.00 to 8.00
NC(=O)c1cnc(Nc2ccc(Cl)cc2)nc1N[C@H]1CC[C@@H](N)CC1 [Example 186, 4-(4-aminocyclohexylamino)-2-(4-chlorophenylamino)pyrimidine-5-carboxamide]	7.00 to 8.00
Cc1cccc(Nc2nc(N[C@@H]3CC[C@@H](C(=O)N4CCC4)C[C@@H]3N)ncc2C(N)=O)c1 [Example 191, 2-((1R,2S,4R)-2-amino-4-(azetidine-1-carbonyl)cyclohexylamino)-4-(m-tolylamino)pyrimidine-5-carboxamide]	8.00 to 9.00
Cc1csc(Nc2nc(N[C@H](CC(C)C)C(N)=O)ncc2C(N)=O)c1 [Example 194, (R)-2-(1-amino-4-methyl-1-oxopentan-2-ylamino)-4-(4-methylthiophen-2-ylamino)pyrimidine-5-carboxamide]	7.00 to 8.00
Cc1csc(Nc2nc(N[C@@H](C(N)=O)C(C)C)ncc2C(N)=O)c1 [Example 195, (R)-2-(1-amino-3-methyl-1-oxobutan-2-ylamino)-4-(4-methylthiophen-2-ylamino)pyrimidine-5-carboxamide]	8.00 to 9.00
CC(=O)N[C@H]1CCCC[C@H]1Nc1ncc(C(N)=O)c(Nc2cccc(-n3nccn3)c2)n1 [Example 196]	6.00 to 7.00
COC(=O)C(C)(C)c1cccc(Nc2nc(N[C@@H]3CCCC[C@@H]3N)ncc2C(N)=O)c1 [Example 201]	6.00 to 7.00
CC(C)(C(=O)O)c1cccc(Nc2nc(N[C@@H]3CCCC[C@@H]3N)ncc2C(N)=O)c1 [Example 203]	6.00 to 7.00

Compound	pIC50
NC(=O)c1cnc(N[C@@H]2CCCC[C@@H]2N)nc1Nc1cccc(Oc2nc3ccccc3s2)c1 [Example 204]	7.00 to 8.00
CC[C@@H](Nc1nc(Nc2cc(C)ns2)ncc1C(N)=O)C(N)=O [Example 205]	6.00 to 7.00
Cc1cccc(Nc2nc(NCC(N)CC(F)F)ncc2C(N)=O)c1 (stereo not drawn) [Example 206]	7.00 to 8.00
Cc1ccc(Nc2nc(NC[C@H](C)N)ncc2C(N)=O)cc1 [Example 207]	6.00 to 7.00
Cn1ccc2c(Nc3nc(N[C@@H]4CCNC4)ncc3C(N)=O)cccc21 [Example 212, (R)-4-((1-methyl-1H-indol-4-yl)amino)-2-(pyrrolidin-3-ylamino)pyrimidine-5-carboxamide]	7.00 to 8.00
NC(=O)c1cnc(N[C@@H]2CCNC2)nc1Nc1ccc2ncccc2c1 [Example 214, (R)-2-(pyrrolidin-3-ylamino)-4-(quinolin-6-ylamino)pyrimidine-5-carboxamide]	7.00 to 8.00
NC(=O)c1cnc(N[C@H]2CCCNC2)nc1Nc1cnc2ccccc2c1 [Example 215, (S)-2-(piperidin-3-ylamino)-4-(quinolin-3-ylamino)pyrimidine-5-carboxamide]	6.00 to 7.00
NC(=O)c1cnc(NC2CCNC2=O)nc1Nc1cnc2ccccc2c1 (stereo not drawn) [Example 216, 2-((2-oxopyrrolidin-3-yl)amino)-4-(quinolin-3-ylamino)pyrimidine-5-carboxamide]	< 6.00
NC(=O)c1cnc(N[C@H]2CN[C@H](C(=O)O)C2)nc1Nc1cnc2ccccc2c1 [Example 217, (2S,4R)-4-((5-carbamoyl-4-(quinolin-3-ylamino)pyrimidin-2-yl)amino)pyrrolidine-2-carboxylic acid]	< 6.00
CNC(=O)[C@@H]1C[C@@H](Nc2ncc(C(N)=O)c(Nc3cccc(C)c3)n2)CN1 [Example 218, 2-(((3R,5S)-5-(methylcarbamoyl)pyrrolidin-3-yl)amino)-4-(m-tolylamino)pyrimidine-5-carboxamide]	< 6.00
Cc1cccc(Nc2nc(N[C@H]3CN[C@H](C(=O)N(C)C)C3)ncc2C(N)=O)c1 [Example 219, 2-(((3R,5S)-5-(dimethylcarbamoyl)pyrrolidin-3-yl)amino)-4-(m-tolylamino)pyrimidine-5-carboxamide]	< 6.00
CN1CCCc2cc(Nc3nc(N[C@H]4CN[C@@H](CO)C4)ncc3C(N)=O)ccc21 [Example 220, 2-(((3R,5R)-5-(hydroxymethyl)pyrrolidin-3-yl)amino)-4-((1-methyl-1,2,3,4-tetrahydroquinolin-6-yl)amino)pyrimidine-5-carboxamide]	7.00 to 8.00
NC(=O)c1cnc(N[C@@H]2CCNC2)nc1Nc1cccc(-n2nccn2)c1 [Example 221, (R)-4-(3-(2H-1,2,3-triazol-2-yl)phenyeamino)-2-(pyrrolidin-3-ylamino)pyrimidine-5-carboxamide]	8.00 to 9.00
NC(=O)c1cnc(N[C@@H]2CCNC2)nc1Nc1cccc(-c2ncccn2)c1 [Example 222]	7.00 to 8.00
CCN1CC[C@@H](Nc2ncc(C(N)=O)c(Nc3cccc(-n4nccn4)c3)n2)C1 [Example 223]	< 6.00
N#CCN1CC[C@@H](Nc2ncc(C(N)=O)c(Nc3cccc(-n4nccn4)c3)n2)C1 [Example 224]	6.00 to 7.00
NC(=O)c1cnc(N[C@H]2CN[C@H](CO)C2)nc1Nc1cccc(-n2nccn2)c1 [Example 225]	6.00 to 7.00
C=C1C[C@@H](Nc2ncc(C(N)=O)c(Nc3cccc(-n4nccn4)c3)n2)CN1 [Example 226]	6.00 to 7.00
CC1=C[C@@H](Nc2ncc(C(N)=O)c(Nc3cccc(-n4nccn4)c3)n2)CN1 [Example 227]	6.00 to 7.00
NC(=O)c1cnc(N[C@@H]2CCN(C=O)C2)nc1Nc1cccc(-n2nccn2)c1 [Example 228]	< 6.00
NC(=O)c1cnc(N[C@H]2CN[C@@H](CF)C2)nc1Nc1cccc(-n2nccn2)c1 [Example 229, 4-((3-(2H-1,2,3-triazol-2-yl)phenyl)amino)-2-(((3R,5R)-5-(fluoromethyl)pyrrolidin-3-yl)amino)pyrimidine-5-carboxamide]	6.00 to 7.00
NC(=O)c1cnc(N[C@H]2CNC(=O)C2)nc1Nc1cccc(-n2nccn2)c1 [Example 230]	6.00 to 7.00

— patent US20140323418A1, “SELECTIVE KINASE INHIBITORS” (PORTOLA PHARMACEUTICALS, INC., priority 2011, published 2014)
